For test [1], the target named is T1, DPAGT1 Arg301Cys (Homo sapiens, UniProt Q9H3H5, R301C).
T1 construct: combined with the LIC-adapted primers to amplify the complete DPAGT1 gene, including the desired mutations; 6xHis purification tag with TEV site (N, cleaved yes); made in house; host or cells: Spodoptera frugiperda Sf9 insect cells (baculovirus)
T1 sequence (Q9H3H5 1-408 R301C): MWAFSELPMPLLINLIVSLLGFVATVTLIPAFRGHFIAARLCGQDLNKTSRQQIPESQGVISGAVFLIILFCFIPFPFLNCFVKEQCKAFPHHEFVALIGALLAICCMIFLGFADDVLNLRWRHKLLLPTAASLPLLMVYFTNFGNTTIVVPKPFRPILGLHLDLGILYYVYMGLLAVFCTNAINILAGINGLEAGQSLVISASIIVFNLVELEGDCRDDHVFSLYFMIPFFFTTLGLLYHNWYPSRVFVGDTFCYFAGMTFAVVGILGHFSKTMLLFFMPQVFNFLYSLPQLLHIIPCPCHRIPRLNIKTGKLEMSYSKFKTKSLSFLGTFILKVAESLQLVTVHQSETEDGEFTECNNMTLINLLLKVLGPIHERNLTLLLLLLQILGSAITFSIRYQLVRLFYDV
The experiment in a line: Thermostability assay (label free differential scanning fluorimetry). It is filed as binding, H. sapiens. The conditions noted are these: 50 μM compound. As to the method: (§1) Samples with a volume of 40 μl were prepared containing 0.5 mg/ml protein and 50 μM compound or 5% DMSO in GFB. A glass capillary was dipped into each sample, with the capillary held horizontally to ensure that the capillary was full of the sample. The capillaries were placed on the capillary holder on the Nanotemper Prometheus. Technical triplicates of each sample were prepared, and each experiment was conducted with biological triplicates of each protein. PR.ThermControl software was used to run the experiment and analyse the data. A melting curve from 20 °C – 95 °C at 5 °C/min was performed. The minimum of the first derivative of the 330/350nm ratio was used to determine the Tm1/2.
(DSF heats the sample and reads unfolding from a dye or from intrinsic fluorescence.)

Test [2] deals with T2, DPAGT1 Arg301His (Homo sapiens, UniProt Q9H3H5, R301H).
T2 construct: combined with the LIC-adapted primers to amplify the complete DPAGT1 gene, including the desired mutations; 6xHis purification tag with TEV site (N, cleaved yes); made in house; host or cells: Spodoptera frugiperda Sf9 insect cells (baculovirus)
T2 sequence (Q9H3H5 1-408 R301H): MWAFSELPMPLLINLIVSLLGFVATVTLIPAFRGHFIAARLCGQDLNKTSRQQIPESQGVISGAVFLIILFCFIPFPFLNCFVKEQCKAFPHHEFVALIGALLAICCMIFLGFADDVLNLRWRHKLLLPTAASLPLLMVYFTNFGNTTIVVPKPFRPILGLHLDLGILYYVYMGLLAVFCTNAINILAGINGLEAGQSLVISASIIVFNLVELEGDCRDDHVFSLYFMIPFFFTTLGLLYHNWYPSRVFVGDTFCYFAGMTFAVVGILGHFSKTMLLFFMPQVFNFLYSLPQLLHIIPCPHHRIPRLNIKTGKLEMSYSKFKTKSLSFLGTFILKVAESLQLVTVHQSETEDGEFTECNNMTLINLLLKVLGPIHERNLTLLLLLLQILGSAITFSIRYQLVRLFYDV
The test is described as above. It is filed as binding, H. sapiens. To be noted: 50 μM compound. As to the method: as §1

In test [3] the target is T3, DPAGT1 Leu168Pro (Homo sapiens, UniProt Q9H3H5, L168P).
T3 construct: combined with the LIC-adapted primers to amplify the complete DPAGT1 gene, including the desired mutations; 6xHis purification tag with TEV site (N, cleaved yes); made in house; host or cells: Spodoptera frugiperda Sf9 insect cells (baculovirus)
T3 sequence (Q9H3H5 1-408 L168P): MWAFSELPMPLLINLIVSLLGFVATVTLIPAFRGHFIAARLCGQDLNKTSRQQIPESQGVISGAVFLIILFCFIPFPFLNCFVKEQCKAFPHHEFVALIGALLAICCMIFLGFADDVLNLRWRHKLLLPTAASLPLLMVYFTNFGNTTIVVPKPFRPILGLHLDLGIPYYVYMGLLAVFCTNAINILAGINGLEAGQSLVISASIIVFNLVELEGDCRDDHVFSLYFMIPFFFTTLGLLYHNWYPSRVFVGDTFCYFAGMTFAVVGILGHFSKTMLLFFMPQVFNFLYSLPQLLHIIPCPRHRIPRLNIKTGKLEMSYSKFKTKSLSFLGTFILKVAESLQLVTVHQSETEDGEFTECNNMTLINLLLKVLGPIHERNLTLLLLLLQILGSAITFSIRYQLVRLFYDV
Described as above. The class given is binding, H. sapiens. To be noted: 50 μM compound. As to the method: as §1

For test [4], the target named is T4, DPAGT1 Tyr170Cys (Homo sapiens, UniProt Q9H3H5, Y170C).
T4 construct: combined with the LIC-adapted primers to amplify the complete DPAGT1 gene, including the desired mutations; 6xHis purification tag with TEV site (N, cleaved yes); made in house; host or cells: Spodoptera frugiperda Sf9 insect cells (baculovirus)
T4 sequence (Q9H3H5 1-408 Y170C): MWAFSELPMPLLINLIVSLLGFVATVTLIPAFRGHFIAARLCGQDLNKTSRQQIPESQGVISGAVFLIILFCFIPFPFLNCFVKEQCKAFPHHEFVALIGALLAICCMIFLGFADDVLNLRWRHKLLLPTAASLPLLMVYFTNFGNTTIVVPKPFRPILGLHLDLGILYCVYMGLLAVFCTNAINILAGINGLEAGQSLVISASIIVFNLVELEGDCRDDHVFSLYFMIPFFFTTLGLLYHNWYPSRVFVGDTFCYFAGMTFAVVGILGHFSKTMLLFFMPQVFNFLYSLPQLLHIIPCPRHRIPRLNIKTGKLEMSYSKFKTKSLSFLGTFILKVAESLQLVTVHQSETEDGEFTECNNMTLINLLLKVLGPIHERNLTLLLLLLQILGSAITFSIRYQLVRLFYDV
The description is as above. The class given is binding, H. sapiens. The conditions noted are these: 50 μM compound. As to the method:
as §1

Test [5] has as its target T5, DPAGT1 Val264Gly (Homo sapiens, UniProt Q9H3H5, V264G).
T5 construct: H. sapiens DPAGT1 (1-408, Val264Gly, N-terminal 6 x HIS tag, TEV cleavage site); 6xHis purification tag with TEV site (N, cleaved yes); made in house; host or cells: Spodoptera frugiperda Sf9 insect cells (baculovirus)
T5 sequence (Q9H3H5 1-408 V264G): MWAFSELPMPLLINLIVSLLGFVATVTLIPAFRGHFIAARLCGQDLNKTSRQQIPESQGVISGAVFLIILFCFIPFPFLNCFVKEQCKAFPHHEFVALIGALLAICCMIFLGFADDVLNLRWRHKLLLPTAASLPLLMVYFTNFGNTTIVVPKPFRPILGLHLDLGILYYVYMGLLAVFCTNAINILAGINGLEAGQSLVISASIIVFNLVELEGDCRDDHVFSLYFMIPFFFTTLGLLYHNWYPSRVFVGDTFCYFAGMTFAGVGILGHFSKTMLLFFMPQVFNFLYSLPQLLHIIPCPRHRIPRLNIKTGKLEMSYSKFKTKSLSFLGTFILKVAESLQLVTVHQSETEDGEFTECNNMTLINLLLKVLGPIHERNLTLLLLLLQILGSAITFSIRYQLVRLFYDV
The test is described as above. The class given is binding, H. sapiens. The conditions noted are these: 50 μM compound. As to the method: as §1

Test [6] deals with T6, DPAGT1 WT (Homo sapiens, UniProt Q9H3H5).
T6 construct: H. sapiens DPAGT1 (1-408, N-terminal 6 x HIS tag, TEV cleavage site); 6xHis purification tag with TEV site (N, cleaved yes); made in house; host or cells: Spodoptera frugiperda Sf9 insect cells (baculovirus)
T6 sequence (Q9H3H5 1-408): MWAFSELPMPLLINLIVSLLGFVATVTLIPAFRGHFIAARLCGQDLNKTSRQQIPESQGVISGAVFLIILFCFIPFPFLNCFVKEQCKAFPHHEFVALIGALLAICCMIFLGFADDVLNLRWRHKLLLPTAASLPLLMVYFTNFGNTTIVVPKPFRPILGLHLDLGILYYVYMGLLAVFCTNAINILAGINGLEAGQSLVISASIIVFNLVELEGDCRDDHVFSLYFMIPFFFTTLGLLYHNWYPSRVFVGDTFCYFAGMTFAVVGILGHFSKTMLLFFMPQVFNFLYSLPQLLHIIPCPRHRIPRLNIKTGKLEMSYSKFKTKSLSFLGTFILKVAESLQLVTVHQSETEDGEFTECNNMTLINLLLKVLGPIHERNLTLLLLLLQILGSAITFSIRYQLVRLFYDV
The description is as above. To be noted: 50 μM compound. It is filed as binding, H. sapiens. As to the method:
as §1

Test [7] deals with T7, DPAGT1 (Homo sapiens, UniProt Q9H3H5).
T7 construct: H. sapiens DPAGT1 (1-408, N-terminal 6 x HIS tag, TEV cleavage site); 6xHis purification tag with TEV site (N, cleaved yes); made in house; host or cells: Spodoptera frugiperda Sf9 insect cells (baculovirus)
T7 sequence (Q9H3H5 1-408): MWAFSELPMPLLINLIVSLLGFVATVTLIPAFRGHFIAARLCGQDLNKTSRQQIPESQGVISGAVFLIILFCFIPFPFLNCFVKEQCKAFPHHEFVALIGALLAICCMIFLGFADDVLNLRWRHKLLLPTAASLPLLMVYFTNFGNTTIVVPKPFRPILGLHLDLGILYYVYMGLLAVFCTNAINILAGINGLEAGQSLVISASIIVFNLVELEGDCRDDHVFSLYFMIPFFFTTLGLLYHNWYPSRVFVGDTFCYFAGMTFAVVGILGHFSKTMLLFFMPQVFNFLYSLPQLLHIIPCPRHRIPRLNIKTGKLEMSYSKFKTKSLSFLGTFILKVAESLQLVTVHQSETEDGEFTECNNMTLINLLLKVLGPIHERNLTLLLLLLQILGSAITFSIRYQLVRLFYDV
The experiment in a line: Radiolabeled substrate enzyme activity assay. It is filed as biochemical, H. sapiens. To be noted: product inhibition test. As to the method:
2 μl of 2 μM DPAGT1 WT or mutant proteins in GFB buffer supplemented with 5mM extra MgCl2, 1% OGNG/CHS/cardiolipin and dolichyl monophosphate was combined with 2 μl of UDP-N-acetyl [1-14C] […] The reaction was terminated by the addition of 6 μl of 100% methanol and immediately transferred onto ice. 1 μl of sample was spotted onto a silica coated TLC plate in triplicate and run with a mobile phase consisting of chloroform, methanol, and water at a 65:25:4 ratio respectively. After the run, the TLC plate was dried thoroughly, wrapped in cling film, incubated with a phosphor imaging substrate for 4 days, then phosphor imaged using a Biorad. The pixel density of the spots corresponding to the hydrophobic product was divided by combined pixel density of the product and the substrate and multiplied by the known concentration of substrate added to ascertain the amount of product formed.

The values that follow come from paper PMC6218659, “Structures of DPAGT1 Explain Glycosylation Disease Mechanisms and Advance TB Antibiotic Design” (Cell, 2018).

As for `CC(=O)NC1C(OP(=O)(O)OP(=O)(O)OCC2OC(n3ccc(=O)[nH]c3=O)C(O)C2O)OC(CO)C(O)C1O` (stereo not shown) [UDP-GlcNAc, UDP-N-acetyl glucosamine], the “Thermostability (Tm1/2) with added compound” value in test [1] was 52.5±0.6 °C; in test [2], 52.4±1.0 °C; in test [3], 53.8±1.1 °C; in test [4] it was 54.0±0.8 °C; in test [5], 54.6±0.4 °C; in test [6] it was 55.1±0.4 °C.
`O=c1ccn([C@@H]2O[C@H](COP(=O)(O)O)[C@@H](O)[C@H]2O)c(=O)[nH]1` [UMP]: the “effect of adding product on DPAGT1 activity” value in test [7] is given as “no effect”. Moreover, the “Thermostability (Tm1/2) with added compound” value in test [1] stood at 51.4±0.8 °C; in test [2] it was 51.4±0.9 °C; in test [3], 50.4±0.6 °C; in test [4], 50.7±0.3 °C; in test [5], 50.5±0.2 °C; in test [6] it was 51.7±0.2 °C.
